The results in this text go back to US9586966B2, “Piperazino[1,2-a]indol-1-ones and [1,4]diazepino[1,2-a]indol-one” (Hoffmann-La Roche Inc., priority 2013, dated 2017).

Series [1] relates to human embryonic stem cell derived neural stem cells (NSCs). Briefly: Neural stem cell proliferation assay (neurogenesis assay, ATP levels by CellTiterGlo). Type of series: cell-based. The following applies: 96 h, concentration at which 150% activity of control (100%) is reached, NSC proliferation, ATP levels after 4 days incubation, dose response 8 μM to 8 nM. On the procedure: Neural Stem Cell Proliferation Assay
Neurogenic properties of small molecules are determined based on the proliferation of human embryonic stem cell derived neural stem cells (NSCs) which were derived via a dual smad inhibition as previously described (Chambers, S. M., et al., Highly efficient neural conversion of human ES and iPS cells by dual inhibition of SMAD signaling, Nature biotechnology, 2009. 27(3): p. 275-80.)
Compounds respond is measured by the increase in cells based on ATP levels (Promega:CellTiterGlo®) after an incubation period of 4 days.
NSCs are thawed and expanded over 3 passages. On the 14th day, NSCs are seeded in Polyornithin/Laminin coated 384 well plates at a cell density of 21′000 cells/cm^2 in a media volume of 38 μl. 4 hours after cell seeding, compound solutions are added at a volume of 2 μl. Stock solutions of the compounds (water, 5% DMSO) are diluted to obtain a dose response (11 points, dilution factor is 2), ranging from 8 μM to 8 nM. Controls are run to consistently determine the neurogenic properties of the cells:
Negative (neutral) control is cell culture Media (final DMSO concentration: 0.25%).
1. cell culture Media+100 ng/ml FGF2 (final DMSO concentration: 0.1%)
2. cell culture Media+20 ng/ml EGF (final DMSO concentration: 0.1%)
3. cell culture Media+100 ng/ml Wnt3a (final DMSO concentration: 0.1%)
After 4 days incubation at 37° C., 5% CO2, the amount of ATP per well is quantified. The ATP concentration is proportional to the cell number. ATP is quantified by using the Promega CellTiterGlo® kit. The CellTiterGlo® reagents contain a cell lysis buffer, a thermo stable luciferase (UltraGlo™ recombinant luciferase), magnesium and luciferin. Luciferin reacts with ATP producing oxyluciferin, AMP and light. The luminescence signal is proportional to the ATP content.
The value of negative (neutral) control is determined for each assay plate by taking the average of 16 negative control wells. The neurogenic compound response is calculated for each compound as (compound/Negative Control)*100.
The values of EC150 from the dose response curve are determined for each test compound. The EC150 is the compound concentration at which 150% activity of control (100%) is reached.
Background: In ATP-based viability assays light output follows the ATP content of the culture.

What is called melting point is the temperature of the solid-liquid transition. `Cc1cc(F)cc2cc3n(c12)CCCNC3=O` [Example 1, 9-Fluoro-7-methyl-2,3,4,5-tetrahydro-[1,4]diazepino[1,2-a]indol-1-one]: the melting point came out at 198 °C. In series [1], this compound displayed an EC (150% of control) of 0.21 µM.

The compound `Cc1cc(F)cc2cc3n(c12)CCNC3=O` [Example 2, 8-Fluoro-6-methyl-3,4-dihydro-2H-pyrazino[1,2-a]indol-1-one] yielded a melting point of 250.5 °C. This compound also displayed an EC (150% of control) in series [1] of 0.17 µM.

In turn, `Cc1c2n(c3c(CC(C)C)cc(F)cc13)CCNC2=O` [Example 3, 8-Fluoro-6-isobutyl-10-methyl-3,4-dihydro-2H-pyrazino[1,2-a]indol-1-one] registered a melting point of 189 °C. For the same compound, in series [1], the EC (150% of control) was determined as 0.009 µM.

Turning to `Cc1c2n(c3ccc(F)cc13)CCNC2=O` [Example 4, 8-Fluoro-10-methyl-3,4-dihydro-2H-pyrazino[1,2-a]indol-1-one], the melting point turned out to be 230 °C. Moreover, in series [1], the EC (150% of control) came out at 0.31 µM.

On to `Cc1c2n(c3c(C)cc(F)cc13)CCNC2=O` [Example 5, 8-Fluoro-6,10-dimethyl-3,4-dihydro-2H-pyrazino[1,2-a]indol-1-one], for which the melting point is 208 °C. Further, in series [1], the EC (150% of control) was determined as 0.074 µM.

For `Cc1c2n(c3c(N4CCOCC4)cc(F)cc13)CCNC2=O` [Example 6, 8-Fluoro-10-methyl-6-morpholin-4-yl-3,4-dihydro-2H-pyrazino[1,2-a]indol-1-one], the melting point was found to be 226 °C. In series [1], this compound displayed an EC (150% of control) of 0.21 µM.

For the compound `Cc1c2n(c3c(C)cc(Cl)cc13)CCNC2=O` [Example 7, 8-Chloro-6,10-dimethyl-3,4-dihydro-2H-pyrazino[1,2-a]indol-1-one], the melting point is 251 °C. The EC (150% of control) in series [1] is 0.11 µM.

On to `CCc1cc(F)cc2c(C)c3n(c12)CCNC3=O` [Example 8, 6-Ethyl-8-fluoro-10-methyl-3,4-dihydro-2H-pyrazino[1,2-a]indol-1-one], for which the melting point is 177 °C. In series [1], this compound came in with an EC (150% of control) of 0.019 µM.

Compound `Cc1c2n(c3c(N4CCS(=O)(=O)CC4)cc(F)cc13)CCNC2=O` [Example 9, 6-(1,1-Dioxo-1λ^6-thiomorpholin-4-yl)-8-fluoro-10-methyl-3,4-dihydro-2H-pyrazino[1,2-a]indol-1-one] yielded a melting point of 387 °C. Besides, the EC (150% of control) in series [1] turned out to be 0.015 µM.

`CCc1cc(Cl)cc2c(C)c3n(c12)CCNC3=O` [Example 10, 8-Chloro-6-ethyl-10-methyl-3,4-dihydro-2H-pyrazino[1,2-a]indol-1-one]: the melting point is 191 °C. This compound gave an EC (150% of control) in series [1] of 0.34 µM.

Compound `C=CCc1cc(F)cc2c(C)c3n(c12)CCNC3=O` [Example 11, 6-Allyl-8-fluoro-10-methyl-3,4-dihydro-2H-pyrazino[1,2-a]indol-1-one] showed a melting point of 172 °C. In addition, the EC (150% of control) in series [1] came to 0.14 µM.

Compound `Cc1c2n(c3c(CCC(C)C)cc(F)cc13)CCNC2=O` [Example 12, 8-Fluoro-10-methyl-6-(3-methyl-butyl)-3,4-dihydro-2H-pyrazino[1,2-a]indol-1-one] came in with a melting point of 161 °C. Moreover, the EC (150% of control) in series [1] was 0.07 µM.

Compound `Cc1c2n(c3c(CCCC#N)cc(F)cc13)CCNC2=O` [Example 13, 4-(8-Fluoro-10-methyl-1-oxo-1,2,3,4-tetrahydro-pyrazino[1,2-a]indol-6-yl)-butyronitrile] came in with a melting point of 194 °C. The EC (150% of control) in series [1] stood at 0.31 µM.

Regarding `Cc1c2n(c3c(CC(C)C)cc(Cl)cc13)CCNC2=O` [Example 14, 8-Chloro-6-isobutyl-10-methyl-3,4-dihydro-2H-pyrazino[1,2-a]indol-1-one], the melting point is 199 °C. This compound also displayed an EC (150% of control) in series [1] of 0.19 µM.

In turn, `Cc1c2n(c3c(Cc4ccc(F)cc4)cc(F)cc13)CCNC2=O` [Example 15, 8-Fluoro-6-(4-fluoro-benzyl)-10-methyl-3,4-dihydro-2H-pyrazino[1,2-a]indol-1-one] showed a melting point of 178 °C. In series [1], the EC (150% of control) is 0.16 µM.

Take `Cc1c2n(c3c(N4CC5(COC5)C4)cc(F)cc13)CCNC2=O` [Example 16, 8-Fluoro-10-methyl-6-(2-oxa-6-aza-spiro[3.3]hept-6-yl)-3,4-dihydro-2H-pyrazino[1,2-a]indol-1-one]: the melting point was 237 °C. Moreover, in series [1], the EC (150% of control) stood at 0.23 µM.

The compound `Cc1c2n(c3c(N4CCS(=O)(=O)CC4)cc(Cl)cc13)CCNC2=O` [Example 17, 8-Chloro-6-(1,1-dioxo-1λ^6-thiomorpholin-4-yl)-10-methyl-3,4-dihydro-2H-pyrazino[1,2-a]indol-1-one] yielded a melting point of 386 °C. In series [1], this compound registered an EC (150% of control) of 0.011 µM.

With `Cc1c2n(c3c(N4CCOCC4)cc(Cl)cc13)CCNC2=O` [Example 18, 8-Chloro-10-methyl-6-morpholin-4-yl-3,4-dihydro-2H-pyrazino[1,2-a]indol-1-one], the melting point was 207 °C. Besides, in series [1], the EC (150% of control) came to 0.039 µM.

As to `Cc1c2n(c3c(N4CCS(=O)(=O)CC4)cc(C#N)cc13)CCNC2=O` [Example 19, 6-(1,1-Dioxo-1λ^6-thiomorpholin-4-yl)-10-methyl-1-oxo-1,2,3,4-tetrahydro-pyrazino[1,2-a]indole-8-carbonitrile], the melting point turned out to be 400 °C. For the same compound, the EC (150% of control) in series [1] worked out at 0.008 µM.

Compound `C#Cc1cc(F)cc2c(C)c3n(c12)CCNC3=O` [Example 20, 6-Ethynyl-8-fluoro-10-methyl-3,4-dihydro-2H-pyrazino[1,2-a]indol-1-one] showed a melting point of 259 °C. Besides, the EC (150% of control) in series [1] was 0.04 µM.

In the case of `CC(C)Cc1cc(C#N)cc2cc3n(c12)CCNC3=O` [Example 21, 6-Isobutyl-1-oxo-1,2,3,4-tetrahydro-pyrazino[1,2-a]indole-8-carbonitrile], the melting point worked out at 260.5 °C. In addition, the EC (150% of control) in series [1] amounted to 0.14 µM.

Compound `CC(C)Cc1cc(F)cc2cc3n(c12)CCCNC3=O` [Example 22, 9-Fluoro-7-isobutyl-2,3,4,5-tetrahydro-[1,4]diazepino[1,2-a]indol-1-one] showed a melting point of 157 °C. This compound displayed an EC (150% of control) in series [1] of 0.11 µM.

The compound `CC(C)Cc1cc(F)cc2cc3n(c12)CCNC3=O` [Example 23, 8-Fluoro-6-(2-methylpropyl)-3,4-dihydro-2H-pyrazino[1,2-a]indol-1-one] registered a melting point of 229 °C. For the same compound, in series [1], the EC (150% of control) came out at 0.02 µM.

In turn, `Cc1c2n(c3c(OCC(F)(F)F)cc(F)cc13)CCNC2=O` [Example 24, 8-Fluoro-10-methyl-6-(2,2,2-trifluoroethoxy)-3,4-dihydro-2H-pyrazino[1,2-a]indol-1-one] displayed a melting point of 239 °C. Further, the EC (150% of control) in series [1] is 0.17 µM.

Consider `CC(C)Cc1cc(Cl)cc2cc3n(c12)CCCNC3=O` [Example 25, 9-Chloro-7-(2-methylpropyl)-2,3,4,5-tetrahydro-[1,4]diazepino[1,2-a]indol-1-one], for which the melting point came out at 186 °C. In addition, the EC (150% of control) in series [1] turned out to be 1.15 µM.

In turn, `CC(C)Cc1cc(Cl)cc2cc3n(c12)CCNC3=O` [Example 26, 8-Chloro-6-(2-methylpropyl)-3,4-dihydro-2H-pyrazino[1,2-a]indol-1-one] came in with a melting point of 236 °C. Also, the EC (150% of control) in series [1] is 0.16 µM.
